Our source for the inhibition values is paper PMC9927415, “Tyrosine Kinase Inhibitors Display Potent Activity against Cryptosporidium parvum” (Microbiology Spectrum, 2022).

Holding throughout (assay): KINOMEscan competitive binding, whole panel
The target in experiment [1] is T1, panel of 203 kinases (Homo sapiens, UniProt P37023).
T1 construct: purchased DiscoverX (KINOMEscan)
As to conditions: 10 µM, n=1; kinase ACVRL1; read-out: Percent inhibition ACVRL1. The method in brief: (§1)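 Read-out is the amount of kinase still captured on an immobilized ATP-site probe after exposure to test compound, expressed as percentage inhibition.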

Experiment [2] has as its target T2, panel of 203 kinases (Homo sapiens, UniProt P29376).
T2 construct: purchased DiscoverX (KINOMEscan)
As to conditions: 10 µM, n=1; kinase LTK; read-out: Percent inhibition LTK. The method in brief: as §1

For experiment [3], the target named is T3, panel of 203 kinases (Homo sapiens, UniProt Q8IU85).
T3 construct: purchased DiscoverX (KINOMEscan)
As to conditions: 10 µM, n=1; kinase CAMK1D; read-out: Percent inhibition CAMK1D. The procedure, abridged:
as §1

Experiment [4] has as its target T4, panel of 203 kinases (Homo sapiens, UniProt P16591).
T4 construct: purchased DiscoverX (KINOMEscan)
To be noted: 10 µM, n=1; kinase FER; read-out: Percent inhibition FER. The procedure, abridged: as §1

For experiment [5], the target named is T5, panel of 203 kinases (Homo sapiens, UniProt Q96GD4).
T5 construct: purchased DiscoverX (KINOMEscan)
To be noted: 10 µM, n=1; kinase AURKB; read-out: Percent inhibition AURKB. The method in brief: as §1

Experiment [6] has as its target T6, panel of 203 kinases (Homo sapiens, UniProt P41240).
T6 construct: purchased DiscoverX (KINOMEscan)
To be noted: 10 µM, n=1; kinase CSK; read-out: Percent inhibition CSK. The procedure, abridged:
as §1

Experiment [7] concerns the target T7, panel of 203 kinases (Homo sapiens, UniProt P07332).
T7 construct: purchased DiscoverX (KINOMEscan)
As to conditions: 10 µM, n=1; kinase FES; read-out: Percent inhibition FES. The procedure, abridged: as §1

The target in experiment [8] is T8, panel of 203 kinases (Homo sapiens, UniProt P49761).
T8 construct: purchased DiscoverX (KINOMEscan)
As to conditions: 10 µM, n=1; kinase CLK3; read-out: Percent inhibition CLK3. The procedure, abridged:
as §1

In experiment [9] the target is T9, panel of 203 kinases (Homo sapiens, UniProt Q13705).
T9 construct: purchased DiscoverX (KINOMEscan)
To be noted: 10 µM, n=1; kinase ACVR2B; read-out: Percent inhibition ACVR2B. The procedure, abridged:
as §1

Experiment [10] deals with T10, panel of 203 kinases (Homo sapiens, UniProt P00519).
T10 construct: purchased DiscoverX (KINOMEscan)
T10 sequence (P00519 whole entry): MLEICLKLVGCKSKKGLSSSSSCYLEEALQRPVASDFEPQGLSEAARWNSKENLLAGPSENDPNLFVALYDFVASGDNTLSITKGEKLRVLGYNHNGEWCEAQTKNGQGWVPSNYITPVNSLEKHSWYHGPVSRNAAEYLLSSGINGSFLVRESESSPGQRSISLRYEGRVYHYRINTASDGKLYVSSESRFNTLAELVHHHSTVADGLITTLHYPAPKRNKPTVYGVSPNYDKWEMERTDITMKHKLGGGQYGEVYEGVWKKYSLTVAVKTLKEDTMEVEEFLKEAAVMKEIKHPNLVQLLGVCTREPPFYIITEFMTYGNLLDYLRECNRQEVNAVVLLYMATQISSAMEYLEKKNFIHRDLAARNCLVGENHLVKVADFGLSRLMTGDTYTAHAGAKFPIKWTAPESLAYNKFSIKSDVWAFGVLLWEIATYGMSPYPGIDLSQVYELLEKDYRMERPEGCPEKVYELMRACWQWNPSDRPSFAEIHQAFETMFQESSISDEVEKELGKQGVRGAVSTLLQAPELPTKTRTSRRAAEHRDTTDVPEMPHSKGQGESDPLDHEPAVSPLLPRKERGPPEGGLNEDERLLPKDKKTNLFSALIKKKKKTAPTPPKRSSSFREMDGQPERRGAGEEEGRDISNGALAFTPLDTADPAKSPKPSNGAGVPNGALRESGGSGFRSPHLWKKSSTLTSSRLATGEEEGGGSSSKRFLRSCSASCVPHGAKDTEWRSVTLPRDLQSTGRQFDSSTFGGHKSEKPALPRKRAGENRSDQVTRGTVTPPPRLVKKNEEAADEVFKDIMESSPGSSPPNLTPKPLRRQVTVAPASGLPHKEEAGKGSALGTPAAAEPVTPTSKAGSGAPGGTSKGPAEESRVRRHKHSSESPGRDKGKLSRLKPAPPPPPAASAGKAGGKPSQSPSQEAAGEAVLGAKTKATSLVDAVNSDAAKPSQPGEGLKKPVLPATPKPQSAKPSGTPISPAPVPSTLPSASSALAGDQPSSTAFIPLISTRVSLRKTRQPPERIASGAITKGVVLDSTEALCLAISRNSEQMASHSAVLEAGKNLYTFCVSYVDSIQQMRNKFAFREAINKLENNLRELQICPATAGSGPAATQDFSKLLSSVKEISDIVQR
To be noted: 10 µM, n=1; kinase ABL1; read-out: Percent inhibition ABL1. The procedure, abridged: as §1

In experiment [11] the target is T11, panel of 203 kinases (Homo sapiens, UniProt Q8N5S9).
T11 construct: purchased DiscoverX (KINOMEscan)
T11 sequence (Q8N5S9 whole entry): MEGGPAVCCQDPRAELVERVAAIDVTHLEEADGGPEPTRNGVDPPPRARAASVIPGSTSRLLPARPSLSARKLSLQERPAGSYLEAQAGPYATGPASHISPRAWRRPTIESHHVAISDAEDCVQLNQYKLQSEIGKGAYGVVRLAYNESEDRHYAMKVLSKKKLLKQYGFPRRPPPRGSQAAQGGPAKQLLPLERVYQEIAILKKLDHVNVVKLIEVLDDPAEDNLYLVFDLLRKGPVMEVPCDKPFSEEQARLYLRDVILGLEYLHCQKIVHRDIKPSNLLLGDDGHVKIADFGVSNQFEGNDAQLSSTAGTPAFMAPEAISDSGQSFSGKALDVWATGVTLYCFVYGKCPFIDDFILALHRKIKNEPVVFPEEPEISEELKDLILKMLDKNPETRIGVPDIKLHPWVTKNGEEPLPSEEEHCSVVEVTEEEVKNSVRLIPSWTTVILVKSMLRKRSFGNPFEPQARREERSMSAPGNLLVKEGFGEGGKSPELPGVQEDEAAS
As to conditions: 10 µM, n=1; kinase CAMKK1; read-out: Percent inhibition CAMKK1. The procedure, abridged:
as §1

Experiment [12] concerns the target T12, panel of 203 kinases (Homo sapiens, UniProt Q13043).
T12 construct: purchased DiscoverX (KINOMEscan)
T12 sequence (Q13043 1-487): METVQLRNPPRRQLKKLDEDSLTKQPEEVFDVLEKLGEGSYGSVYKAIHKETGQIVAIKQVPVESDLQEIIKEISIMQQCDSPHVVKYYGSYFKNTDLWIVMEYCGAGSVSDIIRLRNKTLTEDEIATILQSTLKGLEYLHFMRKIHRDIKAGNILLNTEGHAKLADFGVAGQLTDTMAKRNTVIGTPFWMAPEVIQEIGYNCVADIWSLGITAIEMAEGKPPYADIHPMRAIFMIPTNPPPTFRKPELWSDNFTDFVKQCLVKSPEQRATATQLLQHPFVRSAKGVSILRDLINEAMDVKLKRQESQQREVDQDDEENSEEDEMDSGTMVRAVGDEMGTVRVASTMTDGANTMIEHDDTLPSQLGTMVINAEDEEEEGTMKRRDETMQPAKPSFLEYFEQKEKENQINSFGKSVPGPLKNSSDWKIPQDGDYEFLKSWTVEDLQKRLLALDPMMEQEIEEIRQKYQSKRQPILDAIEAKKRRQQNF
To be noted: 10 µM, n=1; kinase MST1; read-out: Percent inhibition MST1. The procedure, abridged:
as §1

Experiment [13] deals with T13, panel of 203 kinases (Homo sapiens, UniProt P08631).
T13 construct: purchased DiscoverX (KINOMEscan)
T13 sequence (P08631 whole entry): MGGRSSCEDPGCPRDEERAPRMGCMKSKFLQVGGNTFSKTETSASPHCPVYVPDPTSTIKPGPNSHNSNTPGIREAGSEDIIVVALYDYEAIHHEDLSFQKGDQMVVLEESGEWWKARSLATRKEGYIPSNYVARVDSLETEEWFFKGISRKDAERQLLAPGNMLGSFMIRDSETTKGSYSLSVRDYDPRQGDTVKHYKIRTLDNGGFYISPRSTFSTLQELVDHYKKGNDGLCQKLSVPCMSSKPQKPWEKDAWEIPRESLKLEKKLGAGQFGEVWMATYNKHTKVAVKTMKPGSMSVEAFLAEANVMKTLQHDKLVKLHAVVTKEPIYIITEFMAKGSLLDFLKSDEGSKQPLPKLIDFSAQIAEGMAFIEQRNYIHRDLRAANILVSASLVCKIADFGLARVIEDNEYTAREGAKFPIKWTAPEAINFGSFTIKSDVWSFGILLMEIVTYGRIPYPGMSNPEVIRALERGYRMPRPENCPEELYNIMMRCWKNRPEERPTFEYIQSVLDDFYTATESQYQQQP
To be noted: 10 µM, n=1; kinase HCK; read-out: Percent inhibition HCK. The procedure, abridged:
as §1

For experiment [14], the target named is T14, panel of 203 kinases (Homo sapiens, UniProt Q9P289).
T14 construct: purchased DiscoverX (KINOMEscan)
T14 sequence (Q9P289 whole entry): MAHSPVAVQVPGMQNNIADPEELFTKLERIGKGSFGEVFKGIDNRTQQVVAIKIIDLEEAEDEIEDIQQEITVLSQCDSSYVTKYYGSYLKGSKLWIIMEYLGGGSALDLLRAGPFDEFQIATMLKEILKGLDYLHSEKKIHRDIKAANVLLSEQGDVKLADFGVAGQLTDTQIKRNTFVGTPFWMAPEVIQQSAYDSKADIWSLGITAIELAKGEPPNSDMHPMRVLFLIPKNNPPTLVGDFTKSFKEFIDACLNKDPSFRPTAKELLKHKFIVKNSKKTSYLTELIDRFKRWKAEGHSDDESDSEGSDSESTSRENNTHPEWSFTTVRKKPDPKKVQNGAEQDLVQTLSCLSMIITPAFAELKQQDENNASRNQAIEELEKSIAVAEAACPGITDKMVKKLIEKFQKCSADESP
To be noted: 10 µM, n=1; kinase MST4; read-out: Percent inhibition MST4. The method in brief: as §1

Experiment [15] addresses T15, panel of 203 kinases (Homo sapiens, UniProt P07333).
T15 construct: purchased DiscoverX (KINOMEscan)
As to conditions: 10 µM, n=1; kinase CSF1R; read-out: Percent inhibition CSF1R. The procedure, abridged: as §1

The target of experiment [16] is T16, panel of 203 kinases (Homo sapiens, UniProt Q08881).
T16 construct: purchased DiscoverX (KINOMEscan)
T16 sequence (Q08881 1-620): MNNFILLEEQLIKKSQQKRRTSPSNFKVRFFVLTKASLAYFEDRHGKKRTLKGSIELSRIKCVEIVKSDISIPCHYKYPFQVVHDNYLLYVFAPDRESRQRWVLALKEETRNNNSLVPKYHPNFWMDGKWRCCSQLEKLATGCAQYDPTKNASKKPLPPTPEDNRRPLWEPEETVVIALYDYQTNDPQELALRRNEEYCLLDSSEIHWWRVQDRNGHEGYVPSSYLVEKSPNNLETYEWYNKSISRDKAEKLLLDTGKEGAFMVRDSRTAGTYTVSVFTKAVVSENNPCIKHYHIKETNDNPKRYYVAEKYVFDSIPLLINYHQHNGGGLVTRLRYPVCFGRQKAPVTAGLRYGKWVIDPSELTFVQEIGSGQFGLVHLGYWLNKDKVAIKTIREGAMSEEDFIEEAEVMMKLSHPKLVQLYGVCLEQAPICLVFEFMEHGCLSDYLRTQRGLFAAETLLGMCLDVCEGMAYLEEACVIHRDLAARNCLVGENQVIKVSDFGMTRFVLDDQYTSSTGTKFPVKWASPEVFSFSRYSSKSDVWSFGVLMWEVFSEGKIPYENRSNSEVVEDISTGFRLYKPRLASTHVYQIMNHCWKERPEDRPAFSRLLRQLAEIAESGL
To be noted: 10 µM, n=1; kinase ITK; read-out: Percent inhibition ITK. The procedure, abridged: as §1

T15 sequence (P07333 20-972): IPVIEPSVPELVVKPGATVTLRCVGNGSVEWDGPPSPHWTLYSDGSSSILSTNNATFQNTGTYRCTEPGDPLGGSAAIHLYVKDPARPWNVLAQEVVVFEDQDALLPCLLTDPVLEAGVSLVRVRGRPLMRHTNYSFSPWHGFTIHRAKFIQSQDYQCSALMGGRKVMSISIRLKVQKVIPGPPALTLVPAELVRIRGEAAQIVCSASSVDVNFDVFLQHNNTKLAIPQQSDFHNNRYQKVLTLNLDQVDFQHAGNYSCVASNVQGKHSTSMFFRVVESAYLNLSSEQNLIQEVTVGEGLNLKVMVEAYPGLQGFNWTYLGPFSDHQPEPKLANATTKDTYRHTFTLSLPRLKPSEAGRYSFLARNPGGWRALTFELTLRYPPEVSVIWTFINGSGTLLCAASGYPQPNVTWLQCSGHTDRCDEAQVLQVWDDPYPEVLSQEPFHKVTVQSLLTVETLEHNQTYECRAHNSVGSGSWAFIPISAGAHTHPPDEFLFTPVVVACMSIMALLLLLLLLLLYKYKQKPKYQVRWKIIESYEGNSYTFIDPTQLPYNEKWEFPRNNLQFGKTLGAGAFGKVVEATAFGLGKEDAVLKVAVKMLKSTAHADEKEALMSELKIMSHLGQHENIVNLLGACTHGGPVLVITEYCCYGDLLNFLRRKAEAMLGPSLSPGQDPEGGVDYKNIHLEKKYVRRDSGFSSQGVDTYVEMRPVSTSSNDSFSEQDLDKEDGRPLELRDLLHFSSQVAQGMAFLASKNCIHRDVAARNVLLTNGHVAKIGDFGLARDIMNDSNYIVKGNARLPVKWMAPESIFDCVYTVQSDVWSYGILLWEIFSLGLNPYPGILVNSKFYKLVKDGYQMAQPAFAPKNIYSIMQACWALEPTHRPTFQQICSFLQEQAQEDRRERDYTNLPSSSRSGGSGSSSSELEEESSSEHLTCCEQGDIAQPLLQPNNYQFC
T1 sequence (P37023 22-503): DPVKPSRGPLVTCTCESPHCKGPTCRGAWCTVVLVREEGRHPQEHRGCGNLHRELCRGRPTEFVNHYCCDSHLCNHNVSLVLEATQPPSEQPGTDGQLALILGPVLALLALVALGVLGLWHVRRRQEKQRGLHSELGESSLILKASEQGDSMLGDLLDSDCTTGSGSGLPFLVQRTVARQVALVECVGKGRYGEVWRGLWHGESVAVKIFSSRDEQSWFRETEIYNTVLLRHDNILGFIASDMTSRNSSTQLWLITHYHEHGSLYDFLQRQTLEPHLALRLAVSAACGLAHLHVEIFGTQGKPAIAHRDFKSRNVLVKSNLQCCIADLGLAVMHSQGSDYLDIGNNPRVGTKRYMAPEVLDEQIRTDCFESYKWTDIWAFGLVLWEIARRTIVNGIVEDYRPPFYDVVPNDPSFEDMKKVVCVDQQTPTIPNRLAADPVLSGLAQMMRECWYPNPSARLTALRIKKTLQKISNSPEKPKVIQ
T2 sequence (P29376 17-864): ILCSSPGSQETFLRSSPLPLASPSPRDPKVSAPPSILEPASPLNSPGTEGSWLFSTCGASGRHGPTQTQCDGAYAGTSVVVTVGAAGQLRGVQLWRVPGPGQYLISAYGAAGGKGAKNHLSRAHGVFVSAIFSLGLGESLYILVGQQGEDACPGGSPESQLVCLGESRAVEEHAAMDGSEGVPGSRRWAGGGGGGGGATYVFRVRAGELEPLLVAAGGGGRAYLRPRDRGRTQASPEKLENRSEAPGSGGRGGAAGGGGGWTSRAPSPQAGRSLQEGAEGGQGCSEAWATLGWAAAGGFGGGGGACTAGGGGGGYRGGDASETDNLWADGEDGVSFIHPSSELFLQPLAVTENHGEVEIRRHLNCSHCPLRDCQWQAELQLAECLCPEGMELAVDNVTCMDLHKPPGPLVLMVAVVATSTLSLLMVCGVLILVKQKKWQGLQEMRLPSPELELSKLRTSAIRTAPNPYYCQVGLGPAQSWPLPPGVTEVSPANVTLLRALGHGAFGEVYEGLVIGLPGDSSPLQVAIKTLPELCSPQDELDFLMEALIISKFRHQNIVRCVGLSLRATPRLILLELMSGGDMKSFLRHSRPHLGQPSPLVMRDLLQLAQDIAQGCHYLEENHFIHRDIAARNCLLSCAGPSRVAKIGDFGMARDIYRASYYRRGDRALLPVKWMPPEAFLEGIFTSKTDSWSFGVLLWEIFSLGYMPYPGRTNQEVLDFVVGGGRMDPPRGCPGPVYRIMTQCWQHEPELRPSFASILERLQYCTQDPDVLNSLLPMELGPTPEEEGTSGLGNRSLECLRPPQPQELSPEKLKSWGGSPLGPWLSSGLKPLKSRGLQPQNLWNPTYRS

What is called inhibition is the relative decrease from the control value, in per cent. For `Cc1ccc(O)cc1Nc1ccnc(Nc2cccc(C(N)=O)c2)n1` [Compound 3], the inhibition at 10 µM in [1] came out at 99.7%; in experiment [2], 0%; in experiment [3], 0%; in experiment [4] it was 95%; in experiment [5], 82.8%; in [6], 100%. Moreover, the inhibition at 10 µM in [7] amounted to 96.7%; in experiment [8] it was 0%; in experiment [9], 100%; in [10] it was 99.7%; in experiment [11] it was 0%; in [12], 0%. Further, the inhibition at 10 µM in experiment [13] was 99.8%; in experiment [14], 0%; in experiment [15] it was 98.9%; in experiment [16], 0%.
On to `Clc1ccc(Nc2ncc(-c3ccccc3)s2)cc1` [Compound 10], for which the inhibition at 10 µM in experiment [1], in experiment [2], in experiment [3], in experiment [4], in experiment [5] and in experiment [6] was 0% in each case. In addition, the inhibition at 10 µM in experiment [7], in experiment [8], in [9], in [10], in [11] and in experiment [12] was 0% in each case. Moreover, the inhibition at 10 µM in experiment [13], in experiment [14], in experiment [15] and in [16] was 0% in each case.
With `c1ccc(COc2cccc(-c3ccnc4[nH]ccc34)c2)cc1` [Compound 9], the inhibition at 10 µM in experiment [1], in [2], in experiment [3], in [4], in [5] and in [6] was 0% each time. For the same compound, the inhibition at 10 µM in [7], in experiment [8], in experiment [9], in experiment [10], in experiment [11] and in experiment [12] was 0% throughout. The inhibition at 10 µM in [13], in experiment [14], in [15] and in experiment [16] was 0% throughout.
For the compound `Fc1cccc(COc2ccc(Nc3ncnc4c3CN(CCN3CCOCC3)CC4)cc2Cl)c1` [Compound 6], the inhibition at 10 µM in [1], in [2], in experiment [3], in [4], in experiment [5] and in [6] was 0% each time. The inhibition at 10 µM in experiment [7], in [8], in experiment [9], in experiment [10], in [11] and in experiment [12] was 0% in each case. The inhibition at 10 µM in experiment [13], in experiment [14], in experiment [15] and in experiment [16] was 0% throughout.
Take `C[C@@H](Oc1cc(-c2cnc3ccccn23)sc1C(N)=O)c1ccccc1Cl` [Compound 8]: the inhibition at 10 µM in experiment [1] turned out to be 0%; in experiment [2] it was 0%; in experiment [3], 0%; in experiment [4] it was 0%; in [5] it was 87.3%; in [6], 0%. Further, the inhibition at 10 µM in [7], in experiment [8], in experiment [9], in experiment [10], in experiment [11] and in experiment [12] was 0% throughout. For the same compound, the inhibition at 10 µM in experiment [13], in experiment [14], in experiment [15] and in experiment [16] was 0% each time.
On to `CN1CCN(c2ccc(Nc3nccc(-c4cnn5ncccc45)n3)cc2C#N)CC1` [Compound 1], for which the inhibition at 10 µM was 85% in [1]; 0% in [2]; 98.3% in experiment [3]; 0% in [4]; 88.5% in experiment [5]; 83% in experiment [6]. The inhibition at 10 µM in experiment [7] was 66.7%; in experiment [8] it was 98.7%; in [9], 0%; in experiment [10], 87.3%; in [11] it was 99.2%; in experiment [12], 99.3%. Further, the inhibition at 10 µM was 0% in experiment [13], 92.8% in experiment [14], 99.4% in [15] and 79% in experiment [16].
Consider `Cc1ccc(O)cc1N(C)c1ccnc(Nc2cccc(S(N)(=O)=O)c2)n1` [Compound 4], for which the inhibition at 10 µM in experiment [1] was determined as 100%; in [2], 69.7%; in experiment [3], 70%; in [4], 99.6%; in experiment [5], 79.5%; in [6], 100%. In addition, the inhibition at 10 µM was determined as 100% in experiment [7]; 70.5% in experiment [8]; 100% in experiment [9]; 99.8% in [10]; 0% in experiment [11]; 0% in [12]. Moreover, the inhibition at 10 µM in [13] came to 99.8%; in [14] it was 0%; in experiment [15] it was 100%; in [16] it was 0%.
For `COc1ccc(Nc2nccc(-c3cnn4ncccc34)n2)cc1` [Compound 2], the inhibition at 10 µM in experiment [1] came out at 0%; in experiment [2], 80.8%; in experiment [3] it was 0%; in experiment [4], 74.7%; in experiment [5] it was 93.3%; in experiment [6], 0%. The inhibition at 10 µM is 84.9% in experiment [7]; 94.8% in experiment [8]; 80.3% in experiment [9]; 0% in experiment [10]; 97.4% in experiment [11]; 0% in [12]. Besides, the inhibition at 10 µM in [13] came to 0%; in [14], 0%; in experiment [15], 99.8%; in [16], 0%.
